Reference: patent US20110038957A1, “NOVEL NUTRACEUTICAL COMPOSITIONS CONTAINING STEVIA EXTRACT OR STEVIA EXTRACT CONSTITUENTS AND USES THEREOF” (priority 2007, published 2011)
Like-named read-outs stand apart in the source and are kept apart here.

Legend:
[1] = test system: NMDA receptor; settings: rat hippocampal slice, Schaffer collateral stimulation (Bergeron et al 1998); cited from earlier work
[2] = test system: adult mice; settings: systemic administration (Kinney et al 2003); cited from earlier work
[3] = test system: adult mice; settings: systemic administration, adult mice (Kinney et al 2003); cited from earlier work
[4] = test system: NMDA receptor; settings: mouse hippocampal slice, Schaffer collateral stimulation (Bergeron et al 1998); cited from earlier work
[5] = biological target: T1, human glycine transporter 1b (GlyT1) (Homo sapiens, UniProt P48067); assay: Inhibition of glycine transporter 1 in a cellular assay ([3H]-glycine uptake into CHO cells); assay type: cell-based; settings: pure compounds, CHO cells expressing GlyT1, 60 nM [3H]-glycine, 30 minutes, room temperature; for IC50: read-out: IC50 for tritiated glycine uptake
T1 construct: expressed in transfected cells
T1 sequence (P48067 1-652 isoform P48067-3): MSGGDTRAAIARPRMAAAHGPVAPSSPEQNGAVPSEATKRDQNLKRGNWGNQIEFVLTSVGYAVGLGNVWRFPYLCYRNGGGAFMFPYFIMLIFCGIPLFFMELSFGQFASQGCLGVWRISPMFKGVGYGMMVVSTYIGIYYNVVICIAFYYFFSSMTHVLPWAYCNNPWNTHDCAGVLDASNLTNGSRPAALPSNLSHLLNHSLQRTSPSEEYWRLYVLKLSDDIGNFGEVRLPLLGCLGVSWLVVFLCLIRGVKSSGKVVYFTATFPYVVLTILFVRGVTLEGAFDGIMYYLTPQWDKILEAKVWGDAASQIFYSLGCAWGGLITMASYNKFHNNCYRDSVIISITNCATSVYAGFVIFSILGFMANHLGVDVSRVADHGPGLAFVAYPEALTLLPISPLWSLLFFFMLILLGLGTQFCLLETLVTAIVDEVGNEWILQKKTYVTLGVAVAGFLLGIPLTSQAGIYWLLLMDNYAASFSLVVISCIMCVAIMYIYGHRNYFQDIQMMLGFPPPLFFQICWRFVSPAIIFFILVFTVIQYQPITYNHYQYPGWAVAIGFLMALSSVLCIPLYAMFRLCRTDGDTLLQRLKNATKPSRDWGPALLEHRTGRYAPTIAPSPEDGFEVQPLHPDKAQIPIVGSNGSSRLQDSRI
Experimental: CHO cells stably expressing the human glycine transporter 1b cDNA (GlyT1) were routinely grown in Dulbecco's Modified Eagle's Medium (Invitrogen, Carlsbad, USA) containing 10% dialysed foetal calf serum, penicillin, streptomycin, proline and the antibiotic G418. Cells were harvested by trypsinisation one day prior to the assay and were seeded in the above mentioned medium. Immediately prior to the assay, the medium was replaced by uptake buffer containing 150 mM NaCl, 1 mM CaCl2, 2.5 mM KCl, 2.5 mM MgCl2, 10 mM Glucose and 10 mM N-2-hydroxyethylpiperazine-N′-2-ethanesulfonic acid (HEPES buffer).
Glycine uptake into the cells was determined by addition of 60 nM radio-labelled [^3H]-glycine (Amersham Biosciences GE Healthcare, Slough, UK) and incubation for 30 minutes at room temperature. Following removal of unincorporated label by gentle washing three times with the above buffer, incorporated glycine was quantified by liquid scintillation counting.

[6] = test system: GluR1 (cell surface presence of AMPA receptor 1); assay: Hippocampal slice cultures, immunohistochemistry of synaptic marker GluR1; assay type: cell-based, Wistar rats; set-up: key to GluR1, relative activation of synaptic marker: ++++ shows a qualitative maximal activation; ++ and + signify a half-maximum and a moderate activation, respectively; ++ and + signify a half-maximum and a moderate activation, respectively; ± indicates no change in immunoreactivity; settings: 15 min treatment after 48 h in culture; vs sister cultures treated with buffer
Experimental: (§1) Seven-day-old Wistar rats were decapitated using a guillotine. In less than 1 minute the skull was opened, the cerebral hemispheres were separated and transferred and both hippocampi were dissected and transferred into ice-cold buffer containing 137 mM NaCl, 5 mM KCl, 0.85 mM Na2HPO4, 1.5 mM CaCl2, 0.66 mM KH2PO4, 0.28 mM MgSO4, 1 mM MgCl2, 2.7 mM NaHCO3, 1 mM Kynurenic acid and 0.6% D-glucose. Transverse hippocampal slices (400 μm) were prepared using a vibrating blade microtome (VT1200S; Leica Microsystems (Schweiz) AG, Heerbrugg, Switzerland) in the same buffer. Hippocampal slices were individually placed on membrane inserts (Millicell Culture Plate Inserts, 0.4 μm) and cultivated at 35° C., 5% CO2, 95% humidity in a medium containing a 1:1 mixture of BME and MEM (both from Invitrogen) containing 25% heat-inactivated horse serum, 1× GlutaMAX, 1× Penicillin/Streptomycin, 0.6% glucose and 1 mM Kynurenic acid (Stoppini 1991 J. Neurosci. Methods 37(2):173-82). After 48 h in culture, synaptic NMDA receptors were activated by addition of Stevia extract, its major constituents or control substances for 15 min in 140 mM NaCl, 5 mM KCl, 1.3 mM CaCl2, 25 mM HEPES (pH 7.3), 33 mM D-glucose and 0.02 mM bicuculline methiodide. […] An additional positive control comprised the addition of 200 μM glycine to sister cultures. After the treatments, sections were washed and fixed for immunohistochemistry. Markers of enhanced synaptic activity, normally associated with long-term potentiation, representing an ex vivo model of learning and memory were quantitated (see Table 3, below). Treatment of hippocampal cultures with Stevia extract, steviol, isosteviol and stevioside induced one or more biochemical markers typical for LTP (pCREB: activated form of the cAMP response element binding protein; pMAPK: activated form of the mitogen-activated protein kinase; […]

[7] = test system: pCREB (activated form of the cAMP response element binding protein); assay: Hippocampal slice cultures, immunohistochemistry of synaptic marker pCREB; assay type: cell-based, Wistar rats; set-up: key: ++++ shows a qualitative maximal activation; ++ and + signify a half-maximum and a moderate activation, respectively; ++ and + signify a half-maximum and a moderate activation, respectively; ± indicates no change in immunoreactivity; settings: 15 min treatment after 48 h in culture; vs sister cultures treated with buffer
Experimental: as §1

[8] = test system: pMAPK (activated form of the mitogen-activated protein kinase); assay: Hippocampal slice cultures, immunohistochemistry of synaptic marker pMAPK; assay type: cell-based, Wistar rats; set-up: key: ++++ shows a qualitative maximal activation; ++ and + signify a half-maximum and a moderate activation, respectively; ++ and + signify a half-maximum and a moderate activation, respectively; ± indicates no change in immunoreactivity; settings: 15 min treatment after 48 h in culture; vs sister cultures treated with buffer
Experimental: as §1

Row | IC50 for tritiated glycine uptake [5] | Compound | pCREB, relative activation of synaptic marker [7] | pMAPK, relative activation of synaptic marker [8] | further results
1 |  | CN(CCC(Oc1ccc(-c2ccccc2)cc1)c1ccc(F)cc1)CC(=O)O (stereo not shown) [NFPS, N-[3-(4′-fluorophenyl)-3-(4′-phenylphenoxy)] propylsarcosine] |  |  | NMDA receptor responses in CA1 pyramidal cells [1]: enhanced NMDA receptor responses in CA1 pyramidal cells were observed; LTP in the dentate gyrus [2]: increased LTP in the dentate gyrus; Prepulse inhibition of the acoustic startle response [3]: enhanced prepulse inhibition of the acoustic startle response; NMDA receptor responses in CA1 pyramidal cells [4]: enhanced NMDA receptor responses in CA1 pyramidal cells were observed
2 |  | CN(CC[C@@H](Oc1ccc(C(F)(F)F)cc1)c1ccccc1)CC(=O)O [ORG24598, reference compound] |  |  | IC50 [5]: 0.02 µM
3 | inactive | C=C1C[C@@]23CC[C@H]4[C@@](C)(CCC[C@@]4(C)C(=O)O[C@@H]4O[C@H](CO)[C@@H](O)[C@H](O)[C@H]4O)[C@@H]2CC[C@]1(O[C@@H]1O[C@H](CO)[C@@H](O)[C@H](O[C@@H]2O[C@H](CO)[C@@H](O)[C@H](O)[C@H]2O)[C@H]1O[C@@H]1O[C@H](CO)[C@@H](O)[C@H](O)[C@H]1O)C3 [Rebaudioside A] | ± | ± | GluR1, relative activation of synaptic marker [6]: ±
4 |  | CNCC(=O)O [Sarcosine, reference compound] |  |  | IC50 [5]: 35.9 µM
5 | inactive | C=C1C[C@@]23CC[C@H]4[C@@](C)(CCC[C@@]4(C)C(=O)O)[C@@H]2CC[C@]1(O)C3 [Steviol] | ++ | ± | GluR1, percentage increase of control values [6]: 340%
6 | inactive | C=C1C[C@@]23CC[C@H]4[C@@](C)(CCC[C@@]4(C)C(=O)O[C@@H]4O[C@H](CO)[C@@H](O)[C@H](O)[C@H]4O)[C@@H]2CC[C@]1(O[C@@H]1O[C@H](CO)[C@@H](O)[C@H](O)[C@H]1O[C@@H]1O[C@H](CO)[C@@H](O)[C@H](O)[C@H]1O)C3 [Stevioside] | ± | ++ | GluR1, relative activation of synaptic marker [6]: ±
7 | inactive | Isosteviol | + | ± | GluR1, percentage increase of control values [6]: 361%
